Assay results: ChEMBL document CHEMBL1129011, “Novel 4,4-bis(trifluoromethyl) imidazolines as stereospecific and orally active acyl coa: Cholesterol acyltransferase (ACAT) inhibitors and antihypercholesterolemic agents” (Bioorg Med Chem Lett, 1996)

Columns and labels:
Oryctolagus cuniculus [1] = species on record: Oryctolagus cuniculus; experiment: Antihypercholesterolemic value for the compound was determined; type: functional
[2] = Compound was evaluated for the inhibition of J774 macrophage cell culture Acyl coenzyme A:cholesterol acyltransferase; type: cell-based
Oryctolagus cuniculus [3] = experiment: Percent reduction in serum cholesterol was determined by the oral administration in methylcellulose vehicle at a dose of 5 mg/kg/day for 4 day; type: functional
Oryctolagus cuniculus [4] = species on record: Oryctolagus cuniculus; experiment: Antihypercholesterolemic value for the compound was determined in rabbits; type: functional
Oryctolagus cuniculus [5] = experiment: Percent reduction in serum cholesterol was determined by the oral administration in methylcellulose vehicle at a dose of 2.5 mg/kg/day for 7 days; type: functional

Compound | AHV (Oryctolagus cuniculus [1]) [%] | IC50 [2] [µM] | Reduction (Oryctolagus cuniculus [3]) [%] | AHV (Oryctolagus cuniculus [4]) [%] | Reduction (Oryctolagus cuniculus [5]) [%]
CN(C(=O)c1ccc(C#N)cc1)[C@@H]1N(C)C(c2ccc(C#N)cc2)=NC1(C(F)(F)F)C(F)(F)F | 15 | 54 | 12 | – | –
CN(C(=O)c1ccc(C#N)cc1)C1N(C)C(c2ccc(C#N)cc2)=NC1(C(F)(F)F)C(F)(F)F (centres undefined) | – | 16 | – | >90 | 79
CN(C(=O)c1ccc(C#N)cc1)[C@H]1N(C)C(c2ccc(C#N)cc2)=NC1(C(F)(F)F)C(F)(F)F | 90 | 11 | 75 | – | –
